# Measurements: article PMC8322648, “Brevibacillin 2V Exerts Its Bactericidal Activity via Binding to Lipid II and Permeabilizing Cellular Membranes” (Frontiers in Microbiology, 2021)
# What was measured:
# [1] = Carboxyfluorescein leakage assay, LUVs of pure DOPC; conditions: peptide 100 nM; pure DOPC LUVs 5 μM; 25 mM Tris-HCl, 150 mM NaCl, pH 7.5; ex 492/em 515 nm
# Method: LUVs that contain DOPC or DOPC plus 0.1% Lipid II were prepared for a carboxyfluorescein (CF) leakage assay. The lipids were dried by a nitrogen stream and followed under vacuum for 2 h. After that, the lipids were hydrated by adding 25 mm Tris-HCl, 150 mm NaCl, and pH 7.5 containing 50 mm CF. The suspensions were frozen and thawed 10 times, followed by extrusion through 200nm membrane filters (Whatman Nuclepore, Track-Etch Membranes) 10 times. The excess dye was removed by loading vesicles on a spin column (Sephadex G50) for 2 min at 500 × g. Subsequently, the vesicles were diluted to 5 μm, and the brevibacillins-induced release of CF from the vesicles was monitored by measuring the increase in fluorescence intensity. The maximum fluorescence was reached by adding 10 μl of 20% Triton X-100. A Cary Eclipse Fluorescence Spectrophotometer (Agilent, United States) was used to determine the changes of fluorescence signals, and the excitation wavelength and emission wavelength were adjusted to 492 nm and 515 nm, respectively.
# [2] = test system: membrane of Gram-positive bacteria; conditions: ref Yang et al., 2017; cited from earlier work
# Description: A vast number of bacterial non-ribosomally produced peptides (NRPs) have shown strong antimicrobial activity against pathogenic bacteria ([Cochrane et al., 2014]; [Cociancich et al., 2015]; [Hamamoto et al., 2015]; [Ling et al., 2015]; [Süssmuth and Mainz, 2017]). Lipo-tridecapeptides, a class of NRPs, show strong antimicrobial activity against Gram-positive pathogens, including antibiotic-resistant Staphylococcus aureus and Enterococcus spp. ([Barsby et al., 2001], [2006]; [Yang et al., 2016]; [Wu et al., 2019]; [Zhao et al., 2021]). However, many of these lipo-tridecapeptides have shown high ...
# [3] = 31P solid-state NMR of Lipid II in liposomes; assay type: binding; conditions: combined ssNMR, CD and ITC assays
# Method: Multi-lamellar vesicles of DOPC doped with 2 mol % Lys-Lipid II in buffer (20 mm HEPES, 100 mm NaCl, and pH = 8) were collected by centrifugation (60,000 × g) and loaded into 3.2 mm ssNMR rotors. For 3.2 mm rotors, we used 200 nmol of antibiotic with 100 nmol of Lipid II. The 1D ^31P ssNMR experiments were performed at 500 MHz (^1H frequency) magnetic field using 10 kHz magic angle spinning (MAS) at 270 K sample temperature.
# [4] = ref Zhao et al., 2021; cited from earlier work
Substance,"membrane disruption (CF leakage), LUVs lacking Lipid II [1]",membrane permeabilization [2],Lipid II binding site [3],stability in human plasma [4]
Brevibacillin,still caused rapid disruption of membrane,can permeabilize the membrane of Gram-positive bacteria,,
Brevibacillin 2V,still caused rapid disruption of membrane,,binds to the GlcNAc-MurNAc moiety and/or the pentapeptide of Lipid II,good stability in human plasma
